“Also recorded” adds a separate entry of the source.
System: HUVEC
Experiment: Wound-healing (cell migration) assay
Type: cell-based, human
Details: peptide 100 μM or EDTA 2 mM, 24 h
Description: For cell culture study, human umbilical vein endothelial cells (HUVECs; C2519A) were purchased from Lonza, Basel, Switzerland. The cells were cultured in endothelial complete media, which is composed of endothelial basal media EBM-2 (CC-3156, Lonza) supplemented with 1% penicillin (10,000 units/mL)- streptomycin (10,000 units/mL) (Gibco, Cat No 15140122) and endothelial cell growth medium 2 (EGM-2) SingleQuots (CC-4176, Lonza, Switzerland) containing growth factors (insulin-like growth factor, human fibroblast growth factor, human epidermal growth factor, and vascular endothelial growth factor), and supplements (ascorbic acid, heparin, hydrocortisone, and fetal bovine serum). Cell passage was carried out three times per week, considering the cell doubling time (Erdag et al., 2011). Cell migration was investigated using a wound-healing assay. HUVEC cells were detached from the cell culture flask using 0.25% trypsin-EDTA and harvested when cell confluence was approximately 70%–80%. After confirming that cell viability was at least 90%, the cells were suspended in complete medium to a density of 1 × 10^5 cells/mL. […] Wound areas were measured using the Gen5 software, and the relative wound area per time-point was calculated based on the wound at 0 h.

## O=C(O)CN(CCN(CC(=O)O)CC(=O)O)CC(=O)O [EDTA]
HUVEC monolayer scratched, relative to wound at 0 h, three independent experiments
  wound area still uncovered (wound opening area): 82%
HUVEC
  effect on wound healing (in words): no significant wound healing was observed; also recorded: twice the inhibition effect
